Results reported in paper PMC10101059, “Rational Design of Stapled Antimicrobial Peptides to Enhance Stability and In Vivo Potency against Polymicrobial Sepsis” (Microbiology Spectrum, 2023).
Peptide text beside a SMILES is read from it.

Key:
Format in all cases: cell-based
human red blood cells = test system: human red blood cells
Procedure: The hemolytic assay was performed after approval from the institutional ethics committee (Academia Sinica Institutional Review Board [IRB]; ID no. AS-IRB02-111075). Blood was collected from healthy humans, and 50 μL of a 2% blood cell suspension in normal saline was treated with an equal volume of peptide at different concentrations. The mixture was then incubated at 37 ± 2°C for 1 h. Next, the cell suspension was centrifuged at 1,000 × g for 10 min. Percent hemolysis was estimated by the absorbance of treated and control supernatant samples at 540 nm ([23], [44]).

human kidney cell (HK-2) = experiment: alamarBlue cytotoxicity assay; settings: at 1.56 μM, 24 h
Procedure: (§1) (i) Cell culture. Human skin keratinocytes (HaCaT), human kidney (HK-2), and RAW 264.7 macrophage cells were obtained from the Bioresource Collection and Research Center (BCRC, Hsinchu, Taiwan). HaCaT and […] macrophage cells were cultured in Dulbecco’s modified Eagle’s medium (DMEM, Thermo Fischer, MA, USA.) supplemented with 10% FBS, penicillin (100 U/mL), and streptomycin (100 μg/mL) at 37°C under 5% CO2. HK-2 cells were cultured in glucose-free Keratinocyte serum-free medium (K-SFM) supplemented with 0.05 mg/mL bovine pituitary extract (BPE), 5 ng/mL EGF, 100 U/mL penicillin, and […] streptomycin at 37°C in 5% CO2 ([49]).
(§2) In vitro toxicity assay. The cytotoxicity of TP4-3 was evaluated by an alamarBlue assay. HaCaT, HK-2, and RAW 264.7 macrophage cells were seeded at densities of 1 × 10^4 cells/well in 96-well cell plates and treated with the indicated concentrations of TP4 and TP4-3 for 24 h (0.78 to 100 μM). Cells treated with 0.1% Triton X-100 and culture medium served as negative and positive-control groups, respectively. After incubation, the cells were washed and incubated for 2 h at 37°C with 90 μL Dulbecco’s modified Eagle medium (DMEM) containing 10 μL alamarBlue reagent. Fluorescence was recorded using a Spectra Max i3 Multi-Mode detection platform (Molecular Devices, San Jose, CA) to measure cell viability ([50], [51]).

[1] = test system: human keratinocyte (HaCaT); experiment: alamarBlue cytotoxicity assay; settings: at 0.78 μM, 24 h
Procedure: as §1, §2

[2] = test system: murine macrophage (RAW 264.7); experiment: alamarBlue cytotoxicity assay; settings: at 1.56 μM, 24 h
Procedure: as §1, §2

CC[C@H](C)[C@H](NC(=O)[C@H](C)NC(=O)[C@H](CCCCN)NC(=O)CNC(=O)[C@H](C)NC(=O)[C@H](CO)NC(=O)[C@H](Cc1ccccc1)NC(=O)[C@H](CC(C)C)NC(=O)CNC(=O)CNC(=O)[C@@H](NC(=O)[C@@H](NC(=O)[C@H](Cc1cnc[nH]1)NC(=O)[C@H](Cc1cnc[nH]1)NC(=O)[C@@H](NC(=O)[C@@H](N)Cc1ccccc1)[C@@H](C)CC)[C@@H](C)CC)[C@@H](C)CC)C(=O)N[C@@H](Cc1cnc[nH]1)C(=O)N[C@@H](CCCNC(=N)N)C(=O)N[C@@H](CC(C)C)C(=O)N[C@H](C(=O)N[C@@H](CCCNC(=N)N)C(=O)N[C@@H](CCCNC(=N)N)C(=O)N[C@@H](CCCNC(=N)N)C(=O)N[C@@H](CCCNC(=N)N)C(=O)N[C@@H](CCCNC(=N)N)C(=O)O)[C@@H](C)CC [TP4, tilapia piscidin 4] (H-FIHHIIGGLFSAGKAIHRLIRRRRR-OH)
15% hemolysis concn (human red blood cells): <3.13 µM | cell death (human kidney cell (HK-2)): substantial cell death | cell death [1]: substantial cell death | cell death [2]: substantial cell death
